We go through three compounds from patent publication US5173509A (The United States of America as represented by the …, priority 1990, dated 1992).

For data set [1], the system named is TGF-B cell surface receptors. To be noted: cited from earlier work.
In data set [2] the test system is EGF cell surface receptors. The note with it: cited from earlier work.
For data set [3] the following is noted: when used at the levels herein taught; cited from earlier work.
The nature of data set [4]: Plasma half life / plasma level. The class given is in vivo, human. The note with it: after attainment of an effective plasma level. The text has this:
The term "plasma" as used herein refers to whole blood plasma having cell bodies spun out by centrifugation, or similar method. […] Chromatog., Vol. 8, pp. 1685-1696 (1985), hereby incorporated by reference.

Data set [5] has as its system patient having symptomatic hypercalcemia. The note with it: cited from earlier work.
Data set [6] has as its system PDGF cell surface receptors. The note with it: cited from earlier work.
A further data set has as its system calvaria. As to the kind of experiment: Bone resorption assay (calcium released into media by mouse calvaria). The format is cell-based, mice (In:GP(s)), three to six day old. The note with it: for calcium in the media: three days. The text has this:
Glutamine was obtained from Biofluids (Catalog No. 300). […] Heparin was obtained from Organon (1000 units/cc). […] Above factors were stored at -20 degrees centigrade.
Three to six day old mice (In:GP(s)) were obtained from the small animal section of the Veterinarian Resources Branch of the National Institutes of Health. Calvaria were harvested and washed in 500 cc of Hank's Balanced Salt solution without calcium or magnesium (Catalog No. 320, Biofluids) with a stirring bar for one to one and a half hours. The calvaria were placed in 2cc of study media in 16 × 125 mm STYRENE tissue culture tubes (Catalog No. R605, Elkay Products, Inc.). Study media was made by mixing equal volumes of Media A and Media B and then adding the appropriate growth factors. […] The calcium in the media was determined after three days with an ABBOTT Bichromatic Analyzer 100.

For data set [7] the following is noted: cited from earlier work.

“Also recorded” adds a separate entry of the source.

Turning to `Cc1ccc(C(=O)Nc2ccc(S(=O)(=O)O)c3cc(S(=O)(=O)O)cc(S(=O)(=O)O)c23)cc1NC(=O)c1cccc(NC(=O)Nc2cccc(C(=O)Nc3cc(C(=O)Nc4ccc(S(=O)(=O)O)c5cc(S(=O)(=O)O)cc(S(=O)(=O)O)c45)ccc3C)c2)c1` [suramin, 8,8'-[carbonylbis[imino-3,1-phenylenecarbonylimino(4-methyl-3,1-phenylene)carbonylimino]]bis-1,3,5-naphthalenetrisulfonic acid], in data set [1], the “blocking of TGF-B to cell surface receptors” value is given as “has been shown to block”. In data set [2], the “blocking of EGF to cell surface receptors” value was “has been shown to block”. Moreover, the “toxicity (in words)” value in data set [3] is reported as “relatively low toxicity”. Besides, the “time for which effective plasma levels are maintained without readministering” value in data set [4] was 6-8 weeks. The “duration of normocalcemia after suramin treatment” value in data set [5] (one patient, cancer metastatic to bone) was “remained normocalcemic for three months; also recorded: normalized for three months”. In addition, the normalization of hypercalcemia entry in data set [5] (suramin 350 mg/m^2 /d continuous infusion about two weeks, calcium levels before 14 to 15 mg/dL) is recorded as “became normocalcemic within about two weeks”. The “blocking of PDGF to cell surface receptors” value in data set [6] is “has been shown to block”. For the same compound, the “calcium in the media” value in the data set with calvaria (Example 1, FIG. 1A, calvaria plus suramin 200 mcg/ml, mean +/- SEM, n=6, media with calvaria 9.88 +/- 1.49, P=0.0002) is 7.05 ± 0.32 mg/dL; with calvaria (Example 2, FIG. 1B, calvaria plus PTH (200 ng/ml) plus suramin 200 mcg/ml, n=6, vs. calvaria plus PTH P=0.0045), 8.33 ± 0.57 mg/dL; in the data set with calvaria (Example 3, FIG. 1C, calvaria plus PTH-rp (200 ng/ml) plus suramin 200 mcg/ml, n=10, vs. calvaria plus PTH-rp P=0.0001) it was 7.26 ± 0.18 mg/dL. Besides, in the data set on calvaria (based on Examples 1-3), the “inhibition of bone resorption (conclusion in words)” value is “possesses properties which allow it to inhibit bone resorption”. Also, the plasma suramin level in data set [7] (350 mg/m^2 /d continuous infusion for about two weeks, 20160 min) is 250 to 300 µg/mL. The “half life in plasma (in words)” value in data set [7] (human plasma) is given as “long plasma half life”.
For “Parathyroid Hormone - related protein (PTH-rp): Human PTH-related protein (PTH-RP) (1-34) (Catalog No. 6151; Peninsular Laboratories Incorporated)”, the “calcium in the media” value in the data set with calvaria (Example 3, FIG. 1C, calvaria plus PTH-rp 200 ng/ml, without suramin, n=10, media with calvaria 9.1 +/- 0.46, P=0.0015) is 11.3 ± 0.34 mg/dL.
With calcitonin, in data set [5] (same patient, before suramin), the “response of hypercalcemia to calcitonin” value is reported as “becoming refractory to treatment with calcitonin”.
